pEC50, pIC50: −log10 of the molar value. Values joined by “and” are separate entries in the source; they are usually repeats but may differ in a detail not shown here. Equal values may be shown once. Read-outs that look alike come from different tables or passages of the source.
Tests used:
hER-β = molecular target: T1, hER-β (Homo sapiens, UniProt Q92731); assay: Estrogen Receptor β Fluorescence Polarization Assay; settings: displacement of Fluormone ES2, fluorescence polarization; read-out: ERβ Binding IC50
T1 construct: purchased Panvera
T1 sequence (Q92731 whole entry): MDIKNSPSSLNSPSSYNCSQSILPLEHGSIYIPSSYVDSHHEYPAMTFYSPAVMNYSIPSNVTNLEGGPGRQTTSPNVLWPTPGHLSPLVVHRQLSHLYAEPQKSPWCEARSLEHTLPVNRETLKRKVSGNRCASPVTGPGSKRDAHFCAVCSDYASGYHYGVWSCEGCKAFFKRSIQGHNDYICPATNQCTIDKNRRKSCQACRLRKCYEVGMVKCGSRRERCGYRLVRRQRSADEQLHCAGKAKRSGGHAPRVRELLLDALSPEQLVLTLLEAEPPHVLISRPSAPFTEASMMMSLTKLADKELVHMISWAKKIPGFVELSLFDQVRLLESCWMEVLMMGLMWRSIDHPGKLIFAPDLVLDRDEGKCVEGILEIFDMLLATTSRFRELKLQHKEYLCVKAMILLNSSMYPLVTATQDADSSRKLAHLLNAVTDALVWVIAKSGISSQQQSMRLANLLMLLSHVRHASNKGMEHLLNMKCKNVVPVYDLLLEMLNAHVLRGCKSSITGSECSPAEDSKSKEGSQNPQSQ
Text: Estrogen Receptor β Fluorescence Polarization Assay
This assay monitors binding of a fluorescent analog of estrogen (Fluormone ES2, Panvera) to the estrogen receptor. Plates are read in a fluorometer that can be set to polarization mode. A decrease in […] relative to vehicle control is an indication of binding of a compound to the receptor.
It is crucial to avoid introduction of air bubbles into the reaction in each well of the 96 well plate throughout this procedure. (Bubbles on the surface of the reaction disrupt light flow, affecting the polarization reading.) However, it is also crucial to effectively mix the reaction components upon addition to the well.
On ice, a 2× standard mixture of Assay Buffer (Panvera), 10 nM DTT and 40 nM ES2 was prepared. On ice, a 2× reaction mixture of Assay Buffer (Panvera), and 20 nM hER-β (Panvera) and 40 nM ES2 was also prepared.
Dilutions of test compound were prepared in 30% (v/v) dimethyl sulfoxide/50 mM HEPES, pH 7.5. At this point, the dilutions were 40× the final required concentration.
The standard mixture at 50 μL was then added to each well. The reaction mixture at 48 μL was added to all wells. The compound dilution at 2.5 μL was added to the appropriate wells. The reaction mixtures were mixed using a manual pipette, a roll of aluminum foil adhesive cover was placed on the plate and the plate incubated at room temperature for 1 hour.
Each well on the plate was then read in an LjL Analyst with an excitation wavelength of […] and an emission wavelength of 538.
(§1) Representative compound of the present invention were tested according to the procedure described above for binding to the Estrogen Receptor α and Estrogen Receptor β, with results as listed in Table 6.

[1] = molecular target: T2, human estrogen receptor α (Homo sapiens, UniProt P03372); assay: Estrogen Receptor α Flash Plate Assay; settings: displacement of radio-labeled estrogen, FlashPlate; read-out: ERα Binding IC50
T2 construct: purchased Panvera
T2 sequence (P03372 1-595): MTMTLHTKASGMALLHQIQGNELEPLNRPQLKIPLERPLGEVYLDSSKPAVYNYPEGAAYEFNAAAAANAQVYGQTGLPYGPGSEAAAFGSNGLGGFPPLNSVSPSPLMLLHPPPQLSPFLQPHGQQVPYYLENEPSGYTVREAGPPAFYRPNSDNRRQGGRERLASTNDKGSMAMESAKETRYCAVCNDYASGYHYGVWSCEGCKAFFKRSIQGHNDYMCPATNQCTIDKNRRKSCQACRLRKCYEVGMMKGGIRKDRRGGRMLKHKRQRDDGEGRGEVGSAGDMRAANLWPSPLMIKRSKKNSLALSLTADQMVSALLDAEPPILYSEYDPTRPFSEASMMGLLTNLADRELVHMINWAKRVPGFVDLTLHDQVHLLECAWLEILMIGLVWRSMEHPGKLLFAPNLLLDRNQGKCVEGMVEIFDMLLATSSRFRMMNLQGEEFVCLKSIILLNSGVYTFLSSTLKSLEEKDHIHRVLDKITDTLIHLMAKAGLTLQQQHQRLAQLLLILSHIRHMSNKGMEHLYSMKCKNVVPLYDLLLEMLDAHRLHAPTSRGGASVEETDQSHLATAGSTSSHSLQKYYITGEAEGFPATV
Procedure: Estrogen Receptor α Flash Plate Assay
This assay monitors binding of radio-labeled estrogen to the estrogen receptor. It is performed on a BioMek 2000 (Beckman). Plates are read in a scintillation counter (Packard TopCount), with decreased counts an indication of binding of a compound to the receptor. The assay was run according to the procedure described by Allan, et al., Anal. Biochem. (1999), 275(2), 243–247.
On day one, 100 μL of Estrogen Screening Buffer (ESB, Panvera) containing 5 mM dithiothreitol (DTT, Panvera), 0.5 μg mouse anti-estrogen receptor monoclonal antibody (SRA-1010, Stressgen) and 50 ng purified human estrogen receptor α (Panvera) were added to each well of a 96 well FlashPlate Plus plate crosslinked with goat anti-mouse antibodies (NEN Life Sciences). The plate was sealed and incubated at 4° C. overnight.
On day two, each well was washed three times with 200 μL PBS, pH 7.2, at room temperature. To each well was then added 98 μL radio-labeled estrogen (0.5 nM, which equals 6 nCi for a 120 Ci/mmol batch, Amersham), diluted in ESB and 5 mM dithiothreitol (DTT). To individual wells were then added 2.5 μL test compound diluted in 30% (v/v) dimethyl sulfoxide/50 mM HEPES, pH 7.5. The wells were mixed three times by aspiration, the plate sealed and incubated at room temperature for one hour. The wells were then counted for 1 min in a TopCount scintillation counter (Packard).
as §1

MCF-7 cells = assay: MCF-7 Cell Proliferation Assay; format: cell-based
Procedure: MCF-7 Cell Proliferation Assay
This assay was run according to the procedure described by Welshons, et al., (Breast Cancer Res. Treat., 1987, 10(2), 169–75), with minor modification.
Briefly, MCF-7 cells (from Dr. C. Jordan, Northwestern University) were maintained in RPMI 1640 phenol red free medium (Gibco) in 10% FBS (Hyclone), supplemented with bovine insulin and non-essential amino acid (Sigma). The cells were initially treated with 4-hydroxytamoxifen (10^−8 M) and let stand at 37° C. for 24 hours. Following this incubation with tamoxifen, the cells were treated with compounds at various concentrations.
Compounds to be tested in the agonist mode were added to the culture media at varying concentrations. Compounds to be treated in the antagonist mode were prepared similarly, and 10 nM 17β-estradiol was also added to the culture media. The cells were incubated for 24 hours at 37° C. Following this incubation, 0.1 μCi of ^14C-thymidine (56mCi/mmol, Amersham) was added to the culture media and the cells were incubated for an additional 24 hours at 37° C. The cells were then washed twice with Hank's buffered salt solution (HBSS) (Gibco) and counted with a scintillation counter. The increase in the ^14C-thymidine in the compound treated cells relative to the vehicle control cells were reported as percent increase in cell proliferation.
(§2) Representative compound of the present invention were tested according to the procedure described in Examples 14 and 15 above, with results as listed in Table. 7.

[2] = system: Human Endometrial Ishikawa Cells; assay: Alkaline Phosphatase Assay in Human Endometrial Ishikawa Cells; format: cell-based; settings: for pEC50: read-out: Ishikawa Agonist EC50; for pIC50: read-out: Ishikawa Antagonist IC50
Procedure: Alkaline Phosphatase Assay in Human Endometrial Ishikawa Cells
This assay was run according to the procedure described by Albert et a., Cancer Res, […], 50(11), 330-6-10, with minor modification.
Ishikawa cells (from ATCC) were maintained in DMEM/F12 (1:1) phenol red free medium (Gibco) supplemented with 10% calf serum (Hyclone). 24 hours prior to testing, the medium was changed to DMEM/F12 (1:1) phenol red free containing 2% calf serum.
Compounds to be tested in the agonist mode were added to the culture media at varying concentrations. Compounds to be treated in the antagonist mode were prepared similarly, and 10 nM 17β-estradiol was also added to the culture media. The cells were then incubated at 37° C. for 3 days. On the fourth day, the media was remove, 1 volume of 1× Dilution Buffer (Clontech) was added to the well followed by addition of 1 volume of Assay Buffer (Clontech). The cells were then incubated at room temperature for 5 minutes. 1 volume of freshly prepared Chemiluminescence Buffer (1 volume of chemiluminescent substrate (CSPD) in 19 volume Chemiluminescent Enhancer with final concentration of CSPD at 1.25 mM; Sigma Chemical Co.) was added. The cells were incubated at room temperature for 10 minutes and then quantified on a luminometer. The increase of chemiluminescence over vehicle control was used to calculate the increase in alkaline phosphatase activity.
as §2

[3] = Homo sapiens, MCF7, agonist mode, 14C-thymidine incorporation, read-out: MCF7 Agonist EC50
[4] = Homo sapiens, MCF7, antagonist mode, 10 nM 17β-estradiol added, 14C-thymidine incorporation, read-out: MCF7 Antagonist IC50
[5] = Homo sapiens, Ishikawa, 72 h, agonist mode, alkaline phosphatase activity, 3 days
[6] = Homo sapiens, Ishikawa, 72 h, antagonist mode, 10 nM 17β-estradiol added, alkaline phosphatase activity, 3 days

| Compound | pIC50 (hER-β) | pIC50 [1] | pEC50 (MCF-7 cells; [3]) | pIC50 (MCF-7 cells; [4]) | pEC50 [2, 5] | pIC50 [2, 6] | further results |
| --- | --- | --- | --- | --- | --- | --- | --- |
| CCC1C(c2ccc(O)cc2)=C(c2ccc(OC)cc2)CC(CO)C1C (centres unmarked) [Compound 20, 4-[6-Ethyl-4-hydroxymethyl-2-(4-methoxy-phenyl)-5-methyl-cyclohex-1-enyl]-phenol] | 7.00 | 5.73 | 6.32 | < 5.00 | 6.15 | 5.35 | – |
| CC1(CO)CCC(c2ccc(O)cc2)=C(c2ccc(O)cc2)C1 (centres unmarked) [Compound 27, (1-methyl-3,4-di(4-hydroxy-phenyl)-cyclohex-3-enyl)-methanol] | 5.82 | 6.30 | < 5.00 | < 5.00 | < 5.00 | < 5.00 | – |
| COc1ccc(C2=C(c3ccc(OC)cc3)CC(CO)C(CO)C2)cc1 (centres unmarked) [Compound 26, [6-Hydroxymethyl-3,4-bis-(4-methoxy-phenyl)-cyclohex-3-enyl]-methanol] | < 5.00 | < 5.00 | < 5.00 | < 5.00 | < 5.00 | < 5.00 | – |
| 4-(4-Hydroxy-phenyl)-[4-(2-morpholin-4-yl-ethoxy)-benzyl]-methyl-cyclohex-3-enecarboxylic acid ethyl ester [Compound 38] | 6.05 and 6.30 | – | – | – | – | – | pEC50 (MCF-7 cells; agonist mode, 14C-thymidine incorporation, read-out: MCF7 Agonist EC50): < 5.00; pIC50 (MCF-7 cells; antagonist mode, 10 nM 17β-estradiol added, 14C-thymidine incorporation, read-out: MCF7 Antagonist IC50): 5.30; pEC50 ([2]; agonist mode, alkaline phosphatase activity, 3 days): < 5.00; pIC50 ([2]; antagonist mode, 10 nM 17β-estradiol added, alkaline phosphatase activity, 3 days): 5.68 |
| CC1=C(C)CC(C)(CO)C(C)C1 (centres unmarked) [Compound 36] | 5.16 | < 5.00 | – | – | – | – | – |
| CN(C)CCOc1ccc(C2=C(c3ccc(O)cc3)CCC(C)(CO)C2)cc1 (centres unmarked) [Compound 3, 4-{2-[4-(2-Dimethylamino-ethoxy)-phenyl]-4-hydroxymethyl-4-methyl-cyclohex-1-enyl}-phenol] | 5.24 | 5.21 | – | – | – | – | – |
| CC1(CO)CC=C(c2ccc(O)cc2)CC1 (centres unmarked) [Compound 25, 4-(4-Hydroxymethyl-4-methyl-cyclohex-1-enyl)-phenol] | 6.46 | 6.35 | 6.70 | < 5.00 | 7.00 | 5.00 | – |
| OC[C@@H]1CC(c2ccccc2)=C(c2ccccc2)C[C@@H]1CO [Compound 18] | > 5.00 | < 5.00 | < 5.00 | < 5.00 | < 5.00 | < 5.00 | – |
| CCC1C(C)C(CO)CC(c2ccc(OC)cc2)C1c1ccc(O)cc1 (centres unmarked) [Compound 4, 4-[2-Ethyl-4-hydroxymethyl-6-(4-methoxy-phenyl)-3-methyl-cyclohexyl]-phenol] | 5.80 | < 5.00 | – | – | – | – | pEC50 (MCF-7 cells; Homo sapiens, MCF7, read-out: MCF7 Agonist EC50): < 5.00; pIC50 (MCF-7 cells; Homo sapiens, MCF7, read-out: MCF7 Antagonist IC50): < 5.00; pEC50 ([2]; Homo sapiens, Ishikawa, 72 h): < 5.00; pIC50 ([2]; Homo sapiens, Ishikawa, 72 h): < 5.00 |

The next lines start with results.

| pIC50 (hER-β) | pIC50 [1] | pEC50 (MCF-7 cells; [3]) | pIC50 (MCF-7 cells; [4]) | pEC50 [2, 5] | pIC50 [2, 6] | Compound | further results |
| --- | --- | --- | --- | --- | --- | --- | --- |
| 5.70 | 5.06 | < 5.00 | < 5.00 | < 5.00 | < 5.00 | COc1ccc(C2=C(c3ccc(OC)cc3)CC3C(CC[C@@H]3O)C2)cc1 (stereo partly drawn) [Compound 61, 5,6-Bis-(4-methoxy-phenyl)-2,3,3a,4,7,7a-hexahydro-1H-inden-1S-ol] | – |
| – | – | < 5.00 | < 5.00 | < 5.00 | < 5.00 | O=C1CCCC2CC(c3ccccc3)=C(c3ccccc3)CC12 (centres unmarked) [Compound 56, 6,7-Diphenyl-3,4,4a,5,8,8a-hexahydro-2H-naphthalen-1-one] | – |
| 5.24 | < 5.00 | < 5.00 | < 5.00 | < 5.00 | < 5.00 | c1ccc(C2=C(c3ccccc3)CC3COCC3C2)cc1 (centres unmarked) [Compound 52] | – |
| < 5.00 | < 5.00 | < 5.00 | < 5.00 | < 5.00 | < 5.00 | CCOC(=O)C1CC=C(c2ccc(OC)cc2)C(Cc2ccc(OCCN3CCCCC3)cc2)C1C (centres unmarked) [Compound 39] | – |
| 6.42 | 6.43 | – | – | – | – | CC1C(CO)CC=C(c2ccc(O)cc2)C1Cc1ccc(OCCN2CCCCC2)cc1 (centres unmarked) [Compound 74] | – |
| 5.31 | < 5.00 | – | – | – | – | COc1ccc(C2=C(c3ccc(OC)cc3)C[C@H]3[C@H](CC[C@H]3O)C2)cc1 [Compound 57, 5,6-Bis-(4-methoxy-phenyl)-2,3,3a,4,7,7a-hexahydro-1H-inden-1R-ol] | – |

Reference: patent publication US7183445B2, “Cyclohexyl derivatives as selective estrogen receptor modulators” (Janssen Pharmaceutica N.V, priority 2004, dated 2007)
